Values joined by “and” are separate entries in the source; they are usually repeats but may differ in a detail not shown here. Identical values can stand only once.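 Test compounds were applied to cells in 96-well plates for 48 hours at 5 doses. GI50 = concentration required for 50% inhibition of growth. TGI: concentration producing complete growth inhibition.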
What was measured:
Assay in all cases: NCI anticancer screen, dose series, 48 h
HCC-2998 colon = tested on: HCC-2998 colon
HCT-15 colon = tested on: HCT-15 colon
K-562 leukemia = tested on: K-562 leukemia
LOX IMVI melanoma = tested on: LOX IMVI melanoma
PC-3 prostate = tested on: PC-3 prostate
SF-268 CNS = tested on: SF-268 CNS
SK-OV-3 ovarian = tested on: SK-OV-3 ovarian
SW-620 colon = tested on: SW-620 colon
UACC-257 melanoma = tested on: UACC-257 melanoma
UACC-62 melanoma = tested on: UACC-62 melanoma

SMILES	GI50 (HCC-2998 colon) [µM]	TGI (HCC-2998 colon) [µM]	GI50 (HCT-15 colon)	TGI (HCT-15 colon)	GI50 (K-562 leukemia)	TGI (K-562 leukemia)	GI50 (LOX IMVI melanoma)	TGI (LOX IMVI melanoma)	GI50 (PC-3 prostate)	TGI (PC-3 prostate)	GI50 (SF-268 CNS)	TGI (SF-268 CNS)	GI50 (SK-OV-3 ovarian)	TGI (SK-OV-3 ovarian)	GI50 (SW-620 colon)	TGI (SW-620 colon)	GI50 (UACC-257 melanoma)	TGI (UACC-257 melanoma)	GI50 (UACC-62 melanoma)	TGI (UACC-62 melanoma)
NC1=Nc2cc(OCCCCN3Cc4ccccc4C3)c(OCC3CC3)cc2C12CCCC2	1.57	3.07	1.48 µM	3.59 µM	0.398 µM	1.73 µM	1.69 µM	3.09 µM	1.69 µM	7.81 µM	1.78 µM	6.42 µM	1.89 µM	3.9 µM	1.7 µM	3.48 µM	1.62 µM	3.48 µM	1.69 µM	3.11 µM
N=C(N)c1ccc(-c2ccc(-c3cccs3)s2)cc1F	1.29	2.93	0.629 µM	2.09 µM	0.341 µM	1.31 µM	1.21 µM	2.67 µM	1.48 µM	3.03 µM	1.65 µM	3.37 µM			0.506 µM	1.94 µM	1.77 µM	3.43 µM	1.62 µM	3.34 µM
CC1(C)CC[C@]2(C(=O)O)CC[C@]3(C)C(=CC[C@@H]4[C@@]5(C)C/C(=C/c6cccnc6)[C@H](O)C(C)(C)[C@@H]5CC[C@]43C)[C@@H]2C1	11.4	54.4	3.85 µM	25.6 µM	3.1 µM	> 100 µM	8.28 µM	24.2 µM	2.66 µM	72.4 µM	8.68 µM	> 100 µM	19 µM	> 100 µM	5.34 µM	> 100 µM	24.9 µM	92.8 µM	4.72 µM	36.4 µM
Cc1n[nH]c(C)c1-c1c(C)n[nH]c1C	1.96	3.82	1.83 µM	4.53 µM	1.94 µM	> 35.6 µM	1.57 µM	3.06 µM	1.51 µM	4.01 µM	2.28 µM	6.91 µM			1.87 µM	4.38 µM	2.18 µM	5.68 µM	1.56 µM	3.42 µM
COC(=O)[C@@H](C)C[C@H](Cc1ccccc1)NC(=O)c1nc([C@@H](C[C@H](C(C)C)N(C)C(=O)[C@@H](NC(=O)[C@H]2CC(=O)CCN2C)C(C)C)OC(C)=O)sc1C(C)C	0.141	> 16	0.524 µM	> 16.7 µM	0.0684 µM	> 16.7 µM	0.11 µM	> 16.7 µM	0.129 µM	> 16.7 µM	0.531 µM	> 16.7 µM	0.809 µM	> 16.7 µM	0.141 µM	> 16.7 µM	> 10.8 µM	> 16.7 µM	0.0722 µM	> 16.7 µM
N#CSc1c[nH]c2cccc(/C=C/C(=O)/C=C(O)/C=C/c3cccc4[nH]cc(SC#N)c34)c12	1.2	4.56	0.186 µM	0.895 µM	0.148 µM	> 33.3 µM	0.148 µM	0.547 µM	0.136 µM	1.77 µM	0.528 µM	1.86 µM	1.32 µM	5.23 µM	0.151 µM	0.555 µM	0.944 µM	3.38 µM	0.4 µM	1.63 µM
N/C(=N\O)c1cn(C2OC(CO)C(O)C2O)c2ncnc(N)c12 (stereo not drawn)	0.212	1.43	0.133 µM	> 47.8 µM	0.281 µM	> 100 µM	0.153 µM	0.501 µM	0.343 µM	5.79 µM	0.105 µM	> 21.5 µM	0.0884 µM	1.76 µM	0.0883 µM		0.177 µM	0.705 µM	0.141 µM	0.366 µM
Nc1c2ccccc2nc2ccccc12	1.81	3.93	1.95 µM and 2.27 µM	11.1 µM and 7.23 µM	3.16 µM and 3.06 µM	12.5 µM and 25.1 µM	1.77 µM and 1.69 µM	5.12 µM and 3.5 µM	2.24 µM and 3.13 µM	9.38 µM and 15.9 µM	1.63 µM and 3.47 µM	4.45 µM and 19.7 µM	2.18 µM and 3.22 µM	9.21 µM and 22 µM	1.06 µM and 3.06 µM	5.95 µM and 22.6 µM	1.54 µM and 3.21 µM	3.06 µM and 10.1 µM	1.51 µM and 2.42 µM	3.45 µM and 6.88 µM
Cc1cc(C)c(CNC(=O)c2cc(Cl)c3c(c2C)O[C@@](C)(C2CCC(N(C)C)CC2)O3)c(=O)[nH]1 (stereo partly drawn)	> 100	> 100	> 100 µM	> 100 µM	41.6 µM	> 100 µM	47.8 µM	> 100 µM	69.7 µM	> 100 µM	60.7 µM	> 100 µM			> 100 µM	> 100 µM	95.3 µM	> 100 µM	> 100 µM	> 100 µM
Nc1nc(-c2ccccn2)c(-c2ccc3ncccc3n2)s1	> 25	> 25	> 25 µM	> 25 µM	> 25 µM	> 25 µM	> 25 µM	> 25 µM	> 25 µM	> 25 µM	> 25 µM	> 25 µM	> 25 µM	> 25 µM	> 25 µM	> 25 µM	> 25 µM	> 25 µM	> 25 µM	> 25 µM
COc1cc2nc(NC3CCC3)nc(NC3CCN(C(C)C)CC3)c2cc1OC	1.7	3.46	2.16 µM	5.15 µM	0.902 µM	10.2 µM	1.72 µM	3.23 µM	3.51 µM	20.7 µM	2.5 µM	8.88 µM	8 µM	33.7 µM	2.49 µM	7.02 µM	1.89 µM	3.78 µM	1.79 µM	3.35 µM
Cc1ccc(CNc2ccc(Cl)cc2NCc2ccc(C)c(O)c2)cc1O	8.96	16.6	5.66 µM	12.2 µM	5.98 µM	18 µM	6.93 µM	13.5 µM	6.33 µM	13.3 µM	7 µM	14.2 µM	8.24 µM	15.2 µM	8.22 µM	16.8 µM	8.12 µM	15.6 µM	7.55 µM	14.5 µM
